The results in this text go back to patent US7220824B1, “Integrin-mediated drug targeting” (Bayer Aktiengesellschaft, priority 2000, dated 2007).

Experiment [1] relates to B16F10. Kind of experiment: Growth inhibition test (MTT), cytotoxic action on tumour cell lines. Type of experiment: cell-based. The conditions noted are these: Mus musculus, B16-F10, 144 h, read-out: IC50 values of the cytotoxic action on tumour cell lines, B16F10. The protocol:
(§1) The human large intestine cell lines SW 480 and HT29 (ATCC No. CCL 228 and HTB38), the human breast cell lines MDA-MB 231, MCF-7 and BT20 (ATCC No. HTB-, 26, 22 and 23) and the mouse melanoma cell line B16F 10 (CRL 6475) were grown to confluence in Roux dishes in RPMI 1640 medium with addition of 10% FCS. They were then trypsinized and taken up in RPMI plus 10% FCS to a cell count of 50,000 cells or, for B16F10, 20,000 cells per ml. 100 μl of cell suspension/well were added to a 96 microwell plate and incubated at 37° C. for 1 day in a CO2 incubator. A further 100 μl of RPMI medium and 1 μl of DMSO were then added with the test substances. The growth was checked after day 6. For this, 25 μl of MTT solution (3-(4,5-dimethylthiazol-2-yl)-2,5-diphenyltetrazolium bromide) was added to each well at a starting concentration of 5 mg/ml of H2O. The plate was incubated at 37° C. for 5 hours in a CO2 incubator. The medium was then aspirated and 100 μl of i-propanol/well were added. After shaking with 100 μl of H2O for 30 min, the extinction was measured at 595-nm using a Multiplate Reader (BIO-RAD 3550-UV).
(§2) The cytostatic action is indicated in Table 2 as an IC50 value, in each case for the individual cell lines.

Experiment [2] concerns BT20. The experiment is described as above. Type of experiment: cell-based. The conditions noted are these: Homo sapiens, BT-20, 144 h, read-out: IC50 values of the cytotoxic action on tumour cell lines, BT20. As for the experimental part:
as §1, §2

Experiment [3] concerns MCF7. Described as above. Type of experiment: cell-based. The conditions noted are these: Homo sapiens, MCF7, 144 h, read-out: IC50 values of the cytotoxic action on tumour cell lines, MCF7. As for the experimental part: as §1, §2
In experiment [4] the test system is MDA-MB 231. The experiment is described as above. Type of experiment: cell-based. The settings on record: Homo sapiens, MDA-MB-231, 144 h, read-out: IC50 values of the cytotoxic action on tumour cell lines, MDA-MB 231. The protocol:
as §1, §2

In experiment [5] the test system is HT 29. The description is as above. Format: cell-based. The settings on record: Homo sapiens, HT-29, 144 h, read-out: IC50 values of the cytotoxic action on tumour cell lines, HT 29. As for the experimental part:
as §1, §2

Experiment [6] deals with SW480. Described as above. The settings on record: Homo sapiens, SW480, 144 h, read-out: IC50 values of the cytotoxic action on tumour cell lines, SW480. Format: cell-based. The protocol:
as §1, §2

Experiment [7] has as its target T1, αvβ3 receptor (αvβ3 from human A375 cells) (Homo sapiens, UniProt P05106+P06756).
T1 construct: αvβ3 from human A375 cells was purified analogously to a procedure which was described by Wong et al; endogenous in cells; host or cells: human A375 cells; the receptor was purified from the cells and used detergent-solubilised (n-octyl-glucopyranoside)
Nature of the experiment: αvβ3 binding test (echistatin displacement, WGA SPA beads). As for the experimental part:
αvβ3 from human A375 cells was purified analogously to a procedure which was described by Wong et al. (Molecular Pharmacology, 50, 529–537 (1996)). In each case, 10 μl of αvβ3 (5 ng) in TBS pH 7.6, 2 mM CaCl2, 1 mM MgCl2, 1% n-octyl-glucopyranoside (Sigma); 10 μl of test substance in TBS pH 7.6, 0.1% DMSO and 45 μl of TBS pH 7.6, 2 mM CaCl2, 1 mM MgCl2, 1 mM MnCl2 were incubated at room temperature for 1 h. In each case, 25 μl of WGA SPA beads (Amersham, 4 mg/ml) and 10 μl of echistatin ([…], Amersham, chloramine-T labelled) were then added. After 16 hours at room temperature, the samples were measured in a scintillation measuring apparatus (Wallac 1450).

Setting [8] is: αvβ3 purified from human A375 cells, labelled echistatin, read-out: IC50 values of the binding to the αvβ3 receptor.

pIC50: −log10 of the molar value. Where two headings read alike, the source gives them in different places.

T1 sequence (P06756 31-889 limits assumed): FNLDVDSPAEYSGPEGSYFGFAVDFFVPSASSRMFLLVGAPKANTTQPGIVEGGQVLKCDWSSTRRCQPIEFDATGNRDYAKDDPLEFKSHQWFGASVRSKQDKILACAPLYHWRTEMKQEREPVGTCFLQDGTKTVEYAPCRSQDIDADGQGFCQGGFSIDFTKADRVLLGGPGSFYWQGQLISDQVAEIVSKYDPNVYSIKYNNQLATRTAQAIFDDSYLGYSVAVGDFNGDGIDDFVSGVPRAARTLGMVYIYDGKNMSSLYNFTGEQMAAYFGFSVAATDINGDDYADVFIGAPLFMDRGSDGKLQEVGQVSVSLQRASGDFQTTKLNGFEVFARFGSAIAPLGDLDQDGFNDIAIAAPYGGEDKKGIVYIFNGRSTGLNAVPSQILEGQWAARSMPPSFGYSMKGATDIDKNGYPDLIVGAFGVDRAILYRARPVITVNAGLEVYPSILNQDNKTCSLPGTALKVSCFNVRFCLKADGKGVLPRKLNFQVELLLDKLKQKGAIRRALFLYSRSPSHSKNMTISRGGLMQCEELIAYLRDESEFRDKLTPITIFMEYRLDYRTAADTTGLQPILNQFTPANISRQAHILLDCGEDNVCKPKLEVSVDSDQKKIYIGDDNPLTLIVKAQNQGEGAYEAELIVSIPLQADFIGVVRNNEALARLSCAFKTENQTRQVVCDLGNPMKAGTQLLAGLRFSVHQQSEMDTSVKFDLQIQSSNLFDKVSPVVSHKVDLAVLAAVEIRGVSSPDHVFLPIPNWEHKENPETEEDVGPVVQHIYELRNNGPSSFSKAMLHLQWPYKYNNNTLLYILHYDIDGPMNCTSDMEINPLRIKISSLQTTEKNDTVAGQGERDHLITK
T1 sequence (P06756 891-1048 partner limits assumed): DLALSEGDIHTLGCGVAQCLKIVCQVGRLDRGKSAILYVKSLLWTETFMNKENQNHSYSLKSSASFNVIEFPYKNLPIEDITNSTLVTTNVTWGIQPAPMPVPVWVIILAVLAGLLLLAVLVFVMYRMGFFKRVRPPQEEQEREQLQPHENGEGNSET
T1 sequence (P05106 27-788): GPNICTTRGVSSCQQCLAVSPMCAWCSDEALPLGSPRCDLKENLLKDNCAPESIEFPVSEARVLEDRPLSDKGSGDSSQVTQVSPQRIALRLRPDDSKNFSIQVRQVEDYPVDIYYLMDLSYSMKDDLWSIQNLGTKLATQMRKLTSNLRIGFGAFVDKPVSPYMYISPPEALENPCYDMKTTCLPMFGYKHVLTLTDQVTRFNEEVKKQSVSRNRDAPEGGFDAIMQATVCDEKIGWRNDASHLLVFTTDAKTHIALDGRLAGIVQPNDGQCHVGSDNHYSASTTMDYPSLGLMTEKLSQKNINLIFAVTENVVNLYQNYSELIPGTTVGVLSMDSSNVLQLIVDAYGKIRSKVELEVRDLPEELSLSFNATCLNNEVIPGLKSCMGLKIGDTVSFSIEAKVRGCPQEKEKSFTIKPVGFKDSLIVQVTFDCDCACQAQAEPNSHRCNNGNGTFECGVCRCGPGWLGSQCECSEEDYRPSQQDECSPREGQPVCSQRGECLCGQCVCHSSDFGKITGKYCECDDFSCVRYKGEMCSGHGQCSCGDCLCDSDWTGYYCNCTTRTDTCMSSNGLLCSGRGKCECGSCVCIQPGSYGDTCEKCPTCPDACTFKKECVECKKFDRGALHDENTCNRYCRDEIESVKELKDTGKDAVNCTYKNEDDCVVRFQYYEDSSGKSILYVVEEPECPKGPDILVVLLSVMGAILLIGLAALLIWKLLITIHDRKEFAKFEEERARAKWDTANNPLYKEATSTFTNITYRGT

Turning to `CC[C@@]1(OC(=O)[C@@H](NC(=O)Nc2cccc(-c3cccc(S(=O)(=O)NC(CC(=O)O)c4ccccc4)c3)c2)C(C)C)C(=O)OCc2c1cc1n(c2=O)Cc2cc3ccccc3nc2-1` (some centres unmarked) [Example 2.13], the pIC50 in experiment [1] is 7.70; in experiment [2] it was 8.30; in experiment [3] it was 8.00; in experiment [4], 7.70; in experiment [5], 7.82; in experiment [6] it was 7.82. The pIC50 in experiment [7] (setting [8]) was 7.01.

`CC[C@@]1(OC(=O)[C@@H](NC(=O)CC[C@H](NC(=O)CC(NC(=O)CNC(=O)c2cccc(NC(=N)N)c2)c2ccccc2)C(=O)O)C(C)C)C(=O)OCc2c1cc1n(c2=O)Cc2cc3ccccc3nc2-1` (some centres unmarked) [Example 1.2]: the pIC50 in experiment [1] was 5.40; in experiment [2] it was 7.00; in experiment [3], 7.22; in experiment [4], 7.70; in experiment [5], 6.30; in experiment [6] it was 6.22. The pIC50 in experiment [7] (setting [8]) was 6.17.

Take `CC[C@@]1(OC(=O)[C@@H](NC(=O)[C@H](CCCCN)NC(=S)Nc2ccc(S(=O)(=O)NC(CC(=O)O)c3cccc(NS(=O)(=O)c4cccc(NC(=N)N)c4)c3)cc2)C(C)C)C(=O)OCc2c1cc1n(c2=O)Cc2cc3ccccc3nc2-1` (some centres unmarked) [Example 3.4]: the pIC50 in experiment [1] is 6.30; in experiment [2], 6.15; in experiment [3], 6.15; in experiment [4], 6.52; in experiment [5], 6.70; in experiment [6] it was 6.70. Moreover, the pIC50 in experiment [7] (setting [8]) is 7.19.

Consider `CCCNC(=O)Nc1cccc(-c2ccc(CC(NC(=S)Nc3cccc4nc5c(cc34)Cn3c-5cc4c(c3=O)COC(=O)[C@]4(O)CC)C(=O)O)cc2)c1` (some centres unmarked) [Example 3.15], for which the pIC50 is 5.22 in experiment [1]; 5.70 in experiment [2]; 6.52 in experiment [3]; 6.70 in experiment [4]; 6.70 in experiment [5]; 6.70 in experiment [6]. Moreover, in experiment [7] (setting [8]), the pIC50 is 7.21.

As to `CC[C@@]1(OC(=O)[C@@H](NC(=O)CNC(=O)CCCC(=O)NC(CC(=O)O)c2cccc(NS(=O)(=O)c3cccc(NC(=N)N)c3)c2)C(C)C)C(=O)OCc2c1cc1n(c2=O)Cc2cc3ccccc3nc2-1` (some centres unmarked) [Example 3.19], the pIC50 in experiment [1] was 5.22; in experiment [2] it was 5.40; in experiment [3], 5.30; in experiment [4], 5.70; in experiment [5] it was 6.30; in experiment [6], 5.82. Further, the pIC50 in experiment [7] (setting [8]) is 7.32.

As to `CC[C@@]1(OC(=O)[C@@H](NC(=O)[C@H](CCCCNC(=O)OCC2c3ccccc3-c3ccccc32)NC(=O)Nc2cccc(-c3cccc(S(=O)(=O)NC(CC(=O)O)c4ccccc4)c3)c2)C(C)C)C(=O)OCc2c1cc1n(c2=O)Cc2cc3ccccc3nc2-1` (some centres unmarked) [Example 2.9], the negative-log IC50 (pIC50) in experiment [1] is 6.52; in experiment [2], 5.82; in experiment [3], 6.52; in experiment [4] it was 6.15; in experiment [5] it was 6.15; in experiment [6] it was 6.00. The compound further gave a pIC50 in experiment [7] of 6.63.

As for `CC[C@@]1(OC(=O)[C@@H](NC(=O)[C@H](CCCCNC(=O)OCC2c3ccccc3-c3ccccc32)NC(=O)Nc2cccc(-c3ccc(C[C@H](NS(=O)(=O)CC45CCC(CC4=O)C5(C)C)C(=O)O)cc3)c2)C(C)C)C(=O)OCc2c1cc1n(c2=O)Cc2cc3ccccc3nc2-1` (some centres unmarked) [Example 2.6], the pIC50 was 5.00 in experiment [1]; 5.05 in experiment [2]; 5.30 in experiment [3]; 5.52 in experiment [4]; 5.52 in experiment [5]; 5.52 in experiment [6]. Also, the pIC50 in experiment [7] is 6.62.

In the case of `CCC1(OC(=O)[C@@H](NC(=O)[C@H](Cc2c[nH]cn2)NC(=O)Nc2cccc(-c3ccc(S(=O)(=O)NC(CC(=O)O)c4ccccc4)cc3)c2)C(C)C)C(=O)OCc2c1cc1n(c2=O)Cc2cc3ccccc3nc2-1` (some centres unmarked) [Example 2.11], the pIC50 was 6.10 in experiment [1]; 6.40 in experiment [2]; 6.30 in experiment [3]; 6.22 in experiment [4]; 6.40 in experiment [5]; 6.22 in experiment [6]. For the same compound, the negative-log IC50 (pIC50) in experiment [7] (setting [8]) was 6.71.

As for `CC[C@@]1(OC(=O)[C@@H](NC(=O)[C@H](Cc2cnc[nH]2)NC(=O)Nc2cccc(-c3ccc(C[C@H](NS(=O)(=O)CC45CCC(CC4=O)C5(C)C)C(=O)O)cc3)c2)C(C)C)C(=O)OCc2c1cc1n(c2=O)Cc2cc3ccccc3nc2-1` (some centres unmarked) [Example 2.7], the pIC50 was 5.52 in experiment [1]; 5.30 in experiment [2]; 6.10 in experiment [3]; 6.05 in experiment [4]; 6.22 in experiment [5]; 6.05 in experiment [6]. This compound gave a pIC50 in experiment [7] of 7.07.

In the case of `CCCNC(=O)Nc1cccc(-c2ccc(CC(NS(=O)(=O)c3cccc(NC(=S)N[C@@H](Cc4c[nH]cn4)C(=O)N[C@H](C(=O)O[C@]4(CC)C(=O)OCc5c4cc4n(c5=O)Cc5cc6ccccc6nc5-4)C(C)C)c3)C(=O)O)cc2)c1` (some centres unmarked) [Example 3.10], the pIC50 in experiment [1] was 6.10; in experiment [2], 6.40; in experiment [3], 6.70; in experiment [4], 6.70; in experiment [5], 6.46; in experiment [6], 6.52. For the same compound, the pIC50 in experiment [7] (setting [8]) is 6.81.

In the case of `CC[C@@]1(OC(=O)[C@@H](NC(=O)[C@H](Cc2cnc[nH]2)NC(=S)Nc2ccc(CC(NS(=O)(=O)c3cccc(-c4cccc(NC(=O)Nc5nc6ccccc6[nH]5)c4)c3)C(=O)O)cc2)C(C)C)C(=O)OCc2c1cc1n(c2=O)Cc2cc3ccccc3nc2-1` (some centres unmarked) [Example 3.9], the pIC50 in experiment [1] was 6.00; in experiment [2], 6.30; in experiment [3], 6.82; in experiment [4], 7.22; in experiment [5], 7.22; in experiment [6], 6.40. Also, the pIC50 in experiment [7] is 6.66.

Take `CC[C@@]1(OC(=O)[C@@H](NC(=O)C(Cc2c[nH]cn2)NC(=S)Nc2ccc(CC(NS(=O)(=O)c3ccc(-c4cccc(NC(=O)Nc5nc6ccccc6[nH]5)c4)cc3)C(=O)O)cc2)C(C)C)C(=O)OCc2c1cc1n(c2=O)Cc2cc3ccccc3nc2-1` (some centres unmarked) [Example 3.11]: the pIC50 is 6.22 in experiment [1]; 6.30 in experiment [2]; 6.60 in experiment [3]; 6.40 in experiment [4]; 6.52 in experiment [5]; 6.22 in experiment [6]. In experiment [7], this compound had a pIC50 of 7.01.

Regarding `CC[C@@]1(OC(=O)[C@@H](NC(=O)[C@H](Cc2c[nH]cn2)NC(=S)Nc2cccc(S(=O)(=O)NC(CC(=O)O)c3cccc(NS(=O)(=O)c4cccc(NC(=N)N)c4)c3)c2)C(C)C)C(=O)OCc2c1cc1n(c2=O)Cc2cc3ccccc3nc2-1` (some centres unmarked) [Example 3.1], the pIC50 in experiment [1] was 6.00; in experiment [2], 6.00; in experiment [3] it was 6.10; in experiment [4] it was 6.30; in experiment [5] it was 6.40; in experiment [6], 6.00. Besides, the pIC50 in experiment [7] was 6.83.

For `CC[C@@]1(OC(=O)[C@@H](NC(=O)[C@H](Cc2c[nH]cn2)NC(=O)Nc2cccc(-c3cccc(S(=O)(=O)NC(CC(=O)O)c4ccccc4)c3)c2)C(C)C)C(=O)OCc2c1cc1n(c2=O)Cc2cc3ccccc3nc2-1` (some centres unmarked) [Example 2.10], the pIC50 in experiment [1] was 5.70; in experiment [2], 6.00; in experiment [3], 5.82; in experiment [4], 6.40; in experiment [5], 6.15; in experiment [6], 6.00. Also, the pIC50 in experiment [7] (setting [8]) was 7.00.
